Results: PMC10611442, “Amelogenin Peptide-Chitosan Hydrogel for Biomimetic Enamel Regrowth” (Frontiers in dental medicine, 2021)

Experiment: Nanoindentation (hardness and elastic modulus) of remineralized enamel sections
Set-up: species or system human
Details: demineralization 2 h pH 4.6; 7-day mineralization cycle in artificial saliva, daily application, hydrogels 0.2 mg/ml; mean ± SD
Experimental: To enhance the mechanical responses, the remineralization cycle was optimized and extended to 7 days. After demineralization, each tooth setting (comprising 3 or 4 teeth sections) was placed into separate cylindrical containers containing remineralization solution (30 ml, pH 7, RT) for 1 week. Experimental groups included healthy enamel, demineralized enamel, control (900 ppm F^−; 0.2% NaF), P26-CS and P32-CS (n = 3 per group).
Every 24 h after the start of the remineralization cycle, 30 μL of NaF solution (900 ppm F^−; 0.2% NaF) was added on top of each tooth for 10 min per day. The teeth were gently rinsed in distilled water and dried. A fresh 20 μl treatment application (P26-CS and P32-CS) was made to each window, followed by air drying for 15 min at RT and then the samples were returned to the fresh stock of remineralization solution. The remineralization solution and peptide were replaced daily. After 1 week of daily treatment application, the slices were sonicated, rinsed, dried, and stored in distilled water at 4°C for nanoindentation. The hardness and elastic modulus of the peptide-mediated mineralized layers were evaluated by nanoindentation tests. The device was calibrated to examine the mechanical properties of the remineralized HAP layers on teeth slices at the nanoscale. […]

[F-].[Na+] [0.2% NaF, NaF]
elastic modulus of regrown enamel (nanoindentation): 40.57 ± 15.8 GPa
hardness of regrown enamel (nanoindentation): 1.3 ± 0.6 GPa
